Reference: ChEMBL document CHEMBL1129110, “O-alkylcarboxylate oxime and N-hydroxyurea analogs of substituted indole leukotriene biosynthesis inhibitors” (Bioorg Med Chem Lett, 1996)
Active and inactive are the calls of the source. No cut-off for these calls is given here.

Experiments:
[1] = target: T1, 5-lipoxygenase/FLAP (Homo sapiens, UniProt P09917+P20292); test: Inhibition of calcium ionophore (A23187) stimulated LTB4 formation in human neutrophils; type: functional
T1 sequence (P09917 whole entry): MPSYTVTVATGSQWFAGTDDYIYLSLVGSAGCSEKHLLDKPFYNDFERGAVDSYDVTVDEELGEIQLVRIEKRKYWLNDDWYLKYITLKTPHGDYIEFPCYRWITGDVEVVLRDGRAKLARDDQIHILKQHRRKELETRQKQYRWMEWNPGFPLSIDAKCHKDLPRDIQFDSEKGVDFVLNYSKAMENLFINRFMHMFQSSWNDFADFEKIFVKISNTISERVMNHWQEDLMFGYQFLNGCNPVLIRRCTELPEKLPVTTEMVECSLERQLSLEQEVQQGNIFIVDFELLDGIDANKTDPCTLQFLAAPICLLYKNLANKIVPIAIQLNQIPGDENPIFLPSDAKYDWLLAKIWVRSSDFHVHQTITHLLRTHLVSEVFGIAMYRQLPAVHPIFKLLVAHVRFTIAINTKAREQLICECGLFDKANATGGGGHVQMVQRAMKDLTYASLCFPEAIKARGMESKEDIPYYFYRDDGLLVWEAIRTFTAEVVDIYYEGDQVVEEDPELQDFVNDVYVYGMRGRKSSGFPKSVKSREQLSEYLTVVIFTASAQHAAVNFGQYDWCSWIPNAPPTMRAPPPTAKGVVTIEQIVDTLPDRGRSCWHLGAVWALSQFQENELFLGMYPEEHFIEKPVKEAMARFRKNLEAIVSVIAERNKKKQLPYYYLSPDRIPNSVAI
T1 sequence (P20292 whole entry): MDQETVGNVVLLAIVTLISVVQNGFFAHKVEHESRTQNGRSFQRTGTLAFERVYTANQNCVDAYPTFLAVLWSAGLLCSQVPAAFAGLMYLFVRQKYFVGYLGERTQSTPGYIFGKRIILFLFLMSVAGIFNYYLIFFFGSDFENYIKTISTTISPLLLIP

[2] = target: T1, 5-lipoxygenase/FLAP; test: (§1) Human whole blood was stimulated with calcium ionophore (A23187) and LTB 4 measured by enzyme immunoassay; type: functional, tissue-based
[3] = system: Rattus norvegicus; test: Compound was tested in vivo against rat anaphylaxis in the peritoneal cavity; type: functional
[4] = species: Homo sapiens; test: Compound was tested for inhibition of calcium ionophore (A23187) stimulated LTB4 formation in human neutrophils at 100 nM; type: functional
[5] = system: Rattus norvegicus; test: Compound was tested in vivo against rat anaphylaxis in the peritoneal cavity at concentration of 100 umol/kg; Not active; type: functional, organism-based
[6] = system: Rattus norvegicus; test: Compound was tested in vivo against rat anaphylaxis in the peritoneal cavity at concentration of 100 umol/kg; type: functional
[7] = system: Rattus norvegicus; test: Compound was tested in vivo against rat anaphylaxis in the peritoneal cavity; Not active; type: functional, organism-based
[8] = target: T2, Polyunsaturated fatty acid 5-lipoxygenase (Rattus norvegicus, UniProt P12527); test: Compound was tested for inhibition of 5-lipoxygenase activity in a broken cell supernatant rat basophilic leukemia cells
T2 sequence (P12527 whole entry): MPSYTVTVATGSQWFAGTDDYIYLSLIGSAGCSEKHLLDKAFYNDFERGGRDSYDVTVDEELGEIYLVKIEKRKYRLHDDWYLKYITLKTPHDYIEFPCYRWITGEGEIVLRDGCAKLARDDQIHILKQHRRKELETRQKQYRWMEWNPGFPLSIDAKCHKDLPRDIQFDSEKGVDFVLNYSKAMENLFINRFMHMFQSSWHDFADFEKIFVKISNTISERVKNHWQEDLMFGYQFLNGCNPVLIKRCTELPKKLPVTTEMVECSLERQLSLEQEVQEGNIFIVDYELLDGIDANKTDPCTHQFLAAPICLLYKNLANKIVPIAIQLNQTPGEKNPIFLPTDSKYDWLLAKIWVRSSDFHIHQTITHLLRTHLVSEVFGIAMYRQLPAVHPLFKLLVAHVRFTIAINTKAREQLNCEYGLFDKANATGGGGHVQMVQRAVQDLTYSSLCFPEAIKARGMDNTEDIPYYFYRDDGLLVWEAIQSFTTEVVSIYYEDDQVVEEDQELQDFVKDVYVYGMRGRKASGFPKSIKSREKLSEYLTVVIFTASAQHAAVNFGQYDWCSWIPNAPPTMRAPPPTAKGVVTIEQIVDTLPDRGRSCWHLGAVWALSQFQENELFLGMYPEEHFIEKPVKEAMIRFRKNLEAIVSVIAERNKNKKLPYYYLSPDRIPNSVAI

[9] = target: T2, Polyunsaturated fatty acid 5-lipoxygenase; test: Compound was tested for inhibition of 5-lipoxygenase activity in a broken cell supernatant rat basophilic leukemia cells at concentration of 32 uM; Not active
[10] = system: Rattus norvegicus; test: Compound was tested in vivo against rat anaphylaxis in the peritoneal cavity at concentration of 1 umol/kg; type: functional
[11] = target: T2, Polyunsaturated fatty acid 5-lipoxygenase; test: Compound was tested for inhibition of 5-lipoxygenase activity in a broken cell supernatant rat basophilic leukemia cells at concentration of 50 uM; Not active
[12] = species: Homo sapiens; test: as §1; type: functional
[13] = system: Rattus norvegicus; test: Compound was tested in vivo against rat anaphylaxis in the peritoneal cavity at 60 umol/kg; type: functional

SMILES | IC50 [1] | IC50 [2] | ED50 [3] | further results
CC(C)(/C=N/OCC(=O)O)Cc1c(SC(C)(C)C)c2cc(OCc3ccccn3)ccc2n1Cc1ccc(Cl)cc1 | 13 nM | 600 nM | 0.12 µmol/kg | 
CC(C)(/C=N/OCC(=O)O)Cc1c(SC(C)(C)C)c2cc(OCc3ccc4ccccc4n3)ccc2n1Cc1ccc(Cl)cc1 | 12 nM | 600 nM | 0.24 µmol/kg | 
CC(C)(C)Sc1c(CC(C)(C)C(=O)O)n(Cc2ccc(Cl)cc2)c2ccc(OCc3cccc(Cl)n3)cc12 | 17 nM | 110 nM | 1.2 µmol/kg | 
CC(C)(C)Sc1c(CC(C)(C)C(=O)O)n(Cc2ccc(Cl)cc2)c2ccc(OCc3ccncc3)cc12 |  | 840 nM |  | inhibition at 0.1 µM [4]: 100%; ED50 [5]: inactive
CC(C)(C)Sc1c(CC(C)(C)C(=O)O)n(Cc2ccc(Cl)cc2)c2ccc(OCc3ccc4ccccc4n3)cc12 [QUIFLAPON] | 8 nM | 200 nM | 1.6 µmol/kg | 
CC(C)(C)Sc1c(CC(C)(C)C(=O)O)n(Cc2ccc(Cl)cc2)c2ccc(OCc3cccnc3)cc12 | 17 nM | 1090 nM |  | inhibition in vivo at 100 µmol/kg [6]: 4%
CC(C)c1ccc2c(c1)c(SC(C)(C)C)c(CC(C)(C)/C=N/OCC(=O)O)n2Cc1ccc(Cl)cc1 | 0.1 nM | 680 nM | 3 µmol/kg | 
CO/N=C/C(C)(C)Cc1c(SC(C)(C)C)c2cc(C(C)C)ccc2n1Cc1ccc(Cl)cc1 | 0.34 nM | 11000 nM |  | ED50 [7]: inactive
CC(C)c1ccc2c(c1)c(SC(C)(C)C)c(CC(C)(C)CN(O)C(N)=O)n2Cc1ccc(Cl)cc1 | 0.17 nM | 1600 nM | 46 µmol/kg | IC50 [8]: 7500 nM
CC(C)c1ccc2c(c1)c(SC(C)(C)C)c(CC(C)(C)C(=O)O)n2Cc1ccc(Cl)cc1 | 0.03 nM | 340 nM | 16 µmol/kg | IC50 [9]: Not Active
CC(C)(C)Sc1c(CC(C)(C)C(=O)O)n(Cc2ccc(Cl)cc2)c2ccc(OCc3nc4ccccc4s3)cc12 | 10 nM | 360 nM |  | inhibition in vivo at 1 µmol/kg [10]: 71%
CC(C)c1ccc2c(c1)c(SC(C)(C)C)c(CC(C)(C)CNC(N)=O)n2Cc1ccc(Cl)cc1 | 0.18 nM | 970 nM | 11 µmol/kg | IC50 [11]: Not Active
CC(C)(C)Sc1c(CC(C)(C)C(=O)O)n(Cc2ccc(Cl)cc2)c2ccc(OCc3cscn3)cc12 | 4 nM | 40 nM | 1.8 µmol/kg | 
CC(C)(/C=N/OCC(=O)O)Cc1c(SC(C)(C)C)c2cc(OCc3cscn3)ccc2n1Cc1ccc(Cl)cc1 | 11 nM | 180 nM | 44 µmol/kg | 
CC(C)(/C=N/OCC(=O)O)Cc1c(SC(C)(C)C)c2cc(OCc3cccc(Cl)n3)ccc2n1Cc1ccc(Cl)cc1 | 10 nM | 230 nM | 2.6 µmol/kg | 
CC(C)c1ccc2c(c1)c(SC(C)(C)C)c(CC(C)(C)/C=N/O)n2Cc1ccc(Cl)cc1 | 0.27 nM | 2200 nM |  | inhibition in vivo at 100 µmol/kg [6]: 46%
CC(C)(C)Sc1c(CC(C)(C)C(=O)O)n(Cc2ccc(Cl)cc2)c2ccc(OCc3nccs3)cc12 | 7 nM |  |  | Inhibition [12]: 41%; inhibition in vivo at 1 µmol/kg [10]: 16%
CC(C)c1ccc2c(c1)c(SC(C)(C)C)c(CC(C)(C)NC(=O)N(C)O)n2Cc1ccc(Cl)cc1 | 0.15 nM | 1300 nM |  | IC50 [8]: 7500 nM; inhibition in vivo at 60 µmol/kg [13]: 49%
CC(C)(C)Sc1c(CC(C)(C)C(=O)O)n(Cc2ccc(Cl)cc2)c2ccc(OCc3ccccn3)cc12 |  | 50 nM | 0.16 µmol/kg | 
CC(C)(C)Sc1c(CC(C)(C)C(=O)O)n(Cc2ccc(Cl)cc2)c2ccc(OCc3ccc4ccccc4c3)cc12 | 12 nM | 4420 nM |  | ED50 [5]: inactive
